Experiments:
GPR3 = target: T1, GPR3 (Homo sapiens, UniProt P46089); assay: GPR3 antagonist functional cAMP assay (LANCE Ultra cAMP TR-FRET, CHO cells stably expressing GPR3); format: cell-based
T1 construct: expressed in transfected cells; host or cells: CHO cells
In short: (§1)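 cAMP quantified by TR-FRET immunoassay after 45 min compound treatment at 37° C of CHO cells stably expressing GPR3 or GPR6, in PDE-inhibitor (Ro 20-1724, 150 μM) buffer with 0.1% BSA. Data scaled between DMSO (0%) and reference compounds (100%); antagonist IC50 by 4-parameter logistic fit.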

GPR6 = target: T2, GPR6 (Homo sapiens, UniProt P46095); assay: GPR6 antagonist functional cAMP assay (LANCE Ultra cAMP TR-FRET, CHO cells stably expressing GPR6); format: cell-based
T2 construct: expressed in transfected cells; host or cells: CHO cells
In short: as §1

[1] = CHO cells stably expressing GPR3, cAMP assay
[2] = CHO cells stably expressing GPR6, cAMP assay
[3] = CHO cells stably expressing GPR3, cAMP assay (Example 24)
[4] = CHO cells stably expressing GPR6, cAMP assay (Example 24)
[5] = procedure as described in Example 24

T2 sequence (P46095 whole entry): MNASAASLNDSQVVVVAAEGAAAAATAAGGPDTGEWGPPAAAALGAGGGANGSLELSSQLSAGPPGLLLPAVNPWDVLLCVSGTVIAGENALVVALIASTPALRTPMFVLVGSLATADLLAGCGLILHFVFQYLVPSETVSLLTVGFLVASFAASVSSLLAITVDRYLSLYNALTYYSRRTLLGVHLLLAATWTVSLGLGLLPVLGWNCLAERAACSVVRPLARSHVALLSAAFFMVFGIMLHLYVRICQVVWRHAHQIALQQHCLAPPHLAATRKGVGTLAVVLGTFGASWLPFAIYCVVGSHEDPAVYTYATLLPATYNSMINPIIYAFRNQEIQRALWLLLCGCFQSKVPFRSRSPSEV
T1 sequence (P46089 whole entry, species assumed): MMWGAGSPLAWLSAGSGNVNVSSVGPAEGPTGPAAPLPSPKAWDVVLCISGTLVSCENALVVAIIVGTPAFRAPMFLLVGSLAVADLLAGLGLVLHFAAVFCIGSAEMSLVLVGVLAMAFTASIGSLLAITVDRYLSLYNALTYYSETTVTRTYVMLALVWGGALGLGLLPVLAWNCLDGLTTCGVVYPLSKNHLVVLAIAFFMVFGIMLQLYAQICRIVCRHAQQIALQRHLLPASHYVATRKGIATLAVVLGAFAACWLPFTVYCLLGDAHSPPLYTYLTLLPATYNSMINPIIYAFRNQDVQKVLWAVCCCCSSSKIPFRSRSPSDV

Row | SMILES | IC50 (GPR3; procedure of Example 24) | IC50 (GPR6; procedure of Example 24) | IC50 (GPR3; [3]) | IC50 (GPR6; [4]) | further results
1 | CC(=O)N1CCc2nc(N3CCN(Cc4cc(F)ccc4Cl)CC3)c(-c3cnn(C)c3)nc2C1 [Compound 506, 1-(2-{4-[(2-chloro-5-fluorophenyl)methyl]-1-piperazinyl}-3-(1-methyl-4-pyrazolyl)-5,6,7,8-tetrahydro-1,4,6-triaza-6-naphthyl)-1-ethanone] | – | – | – | – | IC50 (GPR3; [1]): 1000 to 30000 nM; IC50 (GPR6; [2]): 100 to 1000 nM
2 | O=S(=O)(C1COC1)N1CCc2nc(N3CCC(Oc4ccc(F)cc4F)CC3)c(-c3cnn(C4CCCCO4)c3)nc2C1 (centres unmarked) [Compound 151, 4-(2,4-difluorophenoxy)-1-{3-[1-(oxan-2-yl)-1H-pyrazol-4-yl]-6-(oxetane-3-sulfonyl)-5H,6H,7H,8H-pyrido[3,4-b]pyrazin-2-yl}piperidine] | – | – | 1000 to 30000 nM | 1000 to 30000 nM | –
3 | CC(=O)N1CCc2nc(N3CCN(Cc4ccccc4Cl)CC3)c(-c3cnn(C)c3)nc2C1 [Compound 507, 1-(2-{4-[(o-chlorophenyl)methyl]-1-piperazinyl}-3-(1-methyl-4-pyrazolyl)-5,6,7,8-tetrahydro-1,4,6-triaza-6-naphthyl)-1-ethanone] | – | – | – | – | IC50 (GPR3; [1]): 1000 to 30000 nM; IC50 (GPR6; [2]): 100 to 1000 nM
4 | CC(=O)N1CCc2nc(N3CCC(Oc4ccc(F)cc4F)CC3)c(-c3cccc4nccn34)nc2C1 [Compound 129, 1-{2-[4-(2,4-difluorophenoxy)piperidin-1-yl]-3-{imidazo[1,2-a]pyridin-5-yl}-5H,6H,7H,8H-pyrido[3,4-b]pyrazin-6-yl}ethan-1-one] | – | – | 1000 to 30000 nM | 1000 to 30000 nM | –
5 | CC(=O)Nc1cc2nc(N3CCC(Oc4ccc(F)cc4F)CC3)c(-c3cnn(C)c3)nc2cn1 [Compound 296, N-{2-[4-(2,4-difluorophenoxy)piperidin-1-yl]-3-(1-methyl-1H-pyrazol-4-yl)pyrido[3,4-b]pyrazin-7-yl}acetamide] | 1000 to 30000 nM | 1000 to 30000 nM | – | – | –
6 | CNC(=O)N1CCc2nc(N3CCC(Oc4ccc(F)cc4F)CC3)c(-c3cn[nH]c3)nc2C1 [Compound 180, 2-[4-(2,4-difluorophenoxy)piperidin-1-yl]-N-methyl-3-(1H-pyrazol-4-yl)-5H,6H,7H,8H-pyrido[3,4-b]pyrazine-6-carboxamide] | – | – | 1000 to 30000 nM | 1000 to 30000 nM | –
7 | CC(=O)N1CCc2nc(N3CCC(Oc4ccc(F)cc4F)CC3)c(C3CCOCC3)nc2C1 [Compound 236, 1-{2-[4-(2,4-difluorophenoxy)piperidin-1-yl]-3-(oxan-4-yl)-5H,6H,7H,8H-pyrido[3,4-b]pyrazin-6-yl}ethan-1-one] | – | – | 1000 to 30000 nM | 1000 to 30000 nM | –
8 | CC(=O)N1CCc2nc(N3CCC(C(C)(O)c4ccc(F)cc4F)CC3)c(-c3cnn(C)c3)nc2C1 (centres unmarked) [Compound 558, 1-(2-{4-[1-(2,4-difluorophenyl)-1-hydroxyethyl]-1-piperidyl}-3-(1-methyl-4-pyrazolyl)-5,6,7,8-tetrahydro-1,4,6-triaza-6-naphthyl)-1-ethanone] | – | – | – | – | IC50 (GPR3; [1]): 100 to 1000 nM; IC50 (GPR6; [2]): 1000 to 30000 nM
9 | CC(=O)N1CCc2nc(N3CCC(Oc4ccc(F)cc4F)CC3)c(-c3ccc[nH]c3=O)nc2C1 [Compound 157, 3-{6-acetyl-2-[4-(2,4-difluorophenoxy)piperidin-1-yl]-5H,6H,7H,8H-pyrido[3,4-b]pyrazin-3-yl}-1,2-dihydropyridin-2-one] | – | – | ≥ 30000 nM | ≥ 30000 nM | –
10 | CC(=O)N1CCc2nc(N3CCC(Oc4ccc(F)cc4F)CC3)c(-c3ncc[nH]3)nc2C1 [Compound 40, 1-(2-(4-(2,4-difluorophenoxy)piperidin-1-yl)-3-(1H-imidazol-2-yl)-7,8-dihydropyrido[3,4-b]pyrazin-6(5H)-yl)ethan-1-one] | – | – | – | – | IC50 (GPR3; [5]): 1000 to 30000 nM; IC50 (GPR6; [5]): 1000 to 30000 nM
11 | COc1ccc(CN2CCN(c3nc4c(nc3-c3cnn(C)c3)CN(C(C)=O)CC4)CC2)cc1F [Compound 319, 1-(2-{4-[(3-fluoro-4-methoxyphenyl)methyl]piperazin-1-yl}-3-(1-methyl-1H-pyrazol-4-yl)-5H,6H,7H,8H-pyrido[3,4-b]pyrazin-6-yl)ethan-1-one] | 1000 to 30000 nM | 1000 to 30000 nM | – | – | –
12 | CC(=O)N1CCc2nc(N3CCC(Oc4ccc(F)cc4F)CC3)c(-c3ccccn3)nc2C1 [Compound 79, 1-{2-[4-(2,4-difluorophenoxy)piperidin-1-yl]-3-(pyridin-2-yl)-5H,6H,7H,8H-pyrido[3,4-b]pyrazin-6-yl}ethan-1-one] | – | – | 1000 to 30000 nM | 1000 to 30000 nM | –
13 | CC(=O)N1CCc2nc(N3CCN(Cc4ccccc4C)CC3)c(-c3cnn(C)c3)nc2C1 [Compound 510, 1-[3-(1-methyl-4-pyrazolyl)-2-{4-[(o-tolyl)methyl]-1-piperazinyl}-5,6,7,8-tetrahydro-1,4,6-triaza-6-naphthyl]-1-ethanone] | – | – | – | – | IC50 (GPR3; [1]): 1000 to 30000 nM; IC50 (GPR6; [2]): 1000 to 30000 nM
14 | CC(=O)N1CCc2nc(N3CCC(Oc4ccc(F)cc4F)CC3)c(-c3cccc(OC(C)(C)C)n3)nc2C1 [Compound 23, 1-{3-[6-(tert-butoxy)pyridin-2-yl]-2-[4-(2,4-difluorophenoxy)piperidin-1-yl]-5H,6H,7H,8H-pyrido[3,4-b]pyrazin-6-yl}ethan-1-one] | – | – | – | – | IC50 (GPR3; [5]): 100 to 1000 nM; IC50 (GPR6; [5]): 1000 to 30000 nM

Second part, led by results:

Row | IC50 (GPR3; procedure of Example 24) | IC50 (GPR6; procedure of Example 24) | IC50 (GPR3; [3]) | IC50 (GPR6; [4]) | SMILES | further results
15 | 1000 to 30000 nM | 100 to 1000 nM | – | – | CC(=O)N1CCc2nc(N3CCC(C(C)c4ccc(F)cc4F)CC3)c(-c3cnn(C)c3)nc2C1 (centres unmarked) [Compound 790, 1-(2-{4-[1-(2,4-difluorophenyl)ethyl]-1-piperidyl}-3-(1-methyl-4-pyrazolyl)-5,6,7,8-tetrahydro-1,4,6-triaza-6-naphthyl)-1-ethanone] | –
16 | 1000 to 30000 nM | 1000 to 30000 nM | – | – | CC(=O)N1CCc2nc(N3CCC(COc4ccccc4)C3)c(-c3cnn(C)c3)nc2C1 (centres unmarked) [Compound 363, 1-[3-(1-methyl-1H-pyrazol-4-yl)-2-[3-(phenoxymethyl)pyrrolidin-1-yl]-5H,6H,7H,8H-pyrido[3,4-b]pyrazin-6-yl]ethan-1-one] | –
17 | 1000 to 30000 nM | 100 to 1000 nM | – | – | CC(C)(O)[C@](C)(O)c1cc2nc(-c3cnn(C(F)F)c3)c(N3CCN(Cc4cc(F)ccc4F)CC3)nc2cn1 (single isomer, unassigned) [Compound 795] | –
18 | – | – | 1000 to 30000 nM | 1000 to 30000 nM | CC(=O)N1CCc2nc(N3CCC(Oc4ccc(F)cc4F)CC3)c(C3CCC(=O)CC3)nc2C1 [Compound 404, 4-(6-acetyl-2-(4-(2,4-difluorophenoxy)piperidin-1-yl)-5,6,7,8-tetrahydropyrido[3,4-b]pyrazin-3-yl)cyclohexan-1-one] | –
19 | – | – | 1000 to 30000 nM | 100 to 1000 nM | COCCOc1cc2nc(N3CCC(Oc4ccc(F)cc4F)CC3)c(-c3cnn(C)c3)nc2cn1 [Compound 381, 4-(2,4-difluorophenoxy)-1-[7-(2-methoxyethoxy)-3-(1-methyl-1H-pyrazol-4-yl)pyrido[3,4-b]pyrazin-2-yl]piperidine] | –
20 | 100 to 1000 nM | < 100 nM | – | – | CC(=O)N1CCc2nc(N3CCC(Cc4cc(F)ccc4F)CC3)c(-c3ccc(F)c(N)n3)nc2C1 [Compound 702, 1-[3-(6-amino-5-fluoro-2-pyridyl)-2-{4-[(2,5-difluorophenyl)methyl]-1-piperidyl}-5,6,7,8-tetrahydro-1,4,6-triaza-6-naphthyl]-1-ethanone] | –
21 | – | – | 1000 to 30000 nM | 1000 to 30000 nM | CCc1nccc(-c2nc3c(nc2N2CCC(Oc4ccc(F)cc4F)CC2)CCN(C(C)=O)C3)n1 [Compound 479, 1-{2-[4-(2,4-difluorophenoxy)piperidin-1-yl]-3-(2-ethylpyrimidin-4-yl)-5H,6H,7H,8H-pyrido[3,4-b]pyrazin-6-yl}ethan-1-one] | –
22 | 1000 to 30000 nM | 100 to 1000 nM | – | – | CCn1cc(-c2nc3cc(C(C)(O)C(C)(C)O)ncc3nc2N2CCC(Oc3ccc(F)cc3F)CC2)cn1 (single isomer, unassigned) [Compound 741] | –
